# US8575107B2, “Clusterin derived peptide” (Compugen Ltd., priority 2008, dated 2013)
# Tests used:
# [1] = tested on: lung carcinoma cell line A549; assay: MTT assay, CGEN-CL1 and/or paclitaxel on A549 cells; format: cell-based, human; conditions: single agent
# Experimental: (§1) 20 μl of MTT (3-(4,5-Dimethyl-2-thiazolyl)-2,5-diphenyl-2H-tetrazolium bromide) solution (Sigma Cat#M5655, lot#085k5322, 1 gr was dissolved in 200 ml H2O and filtered, giving a final concentration of 5 mg/ml) was added to each well and incubated for 4 hours at 37° C. after which the medium was vacuumed and 100 μl of DMSO was added to each well. Absorbance was measured in an ELISA reader at 492 nm.
# (§2) A549, PC3 and MCF7 cells were seeded at 6000, 8000 and 10,000 cells per well respectively in 150 μl of media (DMEM medium+5% FBS) in 96 well plates.
# (§3) Paclitaxel (Sigma T7402, Lot. 036k1217, Mw 853.9, 5 mg dissolved in 585 μl DMSO to a stock concentration of 10 mM, stored at −20° C.) and/or CGEN-CL1 (1 mg dissolved in 250 μl of sodium bi-carbonate to a stock concentration of 4 mg/ml) were added to the wells in 25 μl of medium (final volume of 200 μl) as detailed in Table 3. The relative growth was normalized to controls where neither paclitaxel nor CGEN-CL1 was added to wells.
# (§4) An MTT assay was performed as described above in Example 2.
# [2] = tested on: MCF-7 breast cancer cell lines; assay: MTT assay, CGEN-CL1 and/or paclitaxel on MCF-7 cells; format: cell-based
# Experimental: as §1, §2, §3, §4
smiles,measurement,setting,value
"CC(=O)O[C@H]1C(=O)[C@@]2(C)[C@H]([C@H](OC(=O)c3ccccc3)[C@]3(O)C[C@H](OC(=O)[C@H](O)[C@@H](NC(=O)c4ccccc4)c4ccccc4)C(C)=C1C3(C)C)[C@]1(OC(C)=O)CO[C@@H]1C[C@@H]2O [Paclitaxel, reference compound]",maximal effect (inhibition) alone,[1],50%
same,Relative Growth,[2]; Paclitaxel 2.25 nM alone,0.88
same,Relative Growth,[2]; Paclitaxel 30.00 nM alone,0.49
